The values that follow come from PubChem BioAssay (NCI).

Structures are written as SMILES. “And” between values parts separate entries of the source, which are not always exact repeats. Equal values may be shown once.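 Compound exposure: 48 hours, 5 concentrations, 96-well plates. GI50 is the concentration that inhibits growth by half. TGI marks complete inhibition of growth.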 Where only a bound is given, the exact number is not on record here.

Holding throughout (experiment): NCI tumour cell line growth inhibition, 48 h
The test system of assay [1] is NCI-H522 lung.
The test system of assay [2] is DMS 273 small cell lung.
Assay [3] concerns LXFL 529 NSCLC.
Assay [4] has as its system SF-295 CNS.
In assay [5] the test system is M14 melanoma.
In assay [6] the test system is OVCAR-4 ovarian.
Assay [7] has as its system OVCAR-8 ovarian.
The subject of assay [8] is SK-MEL-2 melanoma.
Assay [9] relates to A498 renal.
Assay [10] has as its system HOP-62 NSCLC.

For `COC(=O)NC1C(C)OC(OC2C/C=C(/C)C3C=CC4C(OC5CC(OC6CCC(OC7CC(O)C(OC8CCC(O)C(C)O8)C(C)O7)C(C)O6)C(OC(C)=O)C(C)O5)C(C)CC(C)C4C3(C)/C(O)=C3/C(=O)OC4(CC(C=O)=CC(O)C4/C=C\2C)C3=O)CC1(C)[N+](=O)[O-]` (configuration not stated), the GI50 in [1] is 0.222 µM; in assay [2], 0.414 µM; in assay [4], 0.271 µM; in [5], 0.382 µM; in assay [6], 1.56 µM; in assay [7], 0.265 µM. The GI50 in assay [8] is 0.0551 µM; in assay [9], 0.199 µM; in assay [10], 0.275 µM. The TGI in assay [1] is 2.8 µM and 0.645 µM; in [2], 3.73 µM and 3.26 µM; in [3] it was 1.97 µM; in assay [4], 2.76 µM and 4.15 µM; in assay [5], 2.42 µM and 1.54 µM; in [6] it was 7.26 µM and 4.66 µM. Further, the TGI in assay [7] was 3.85 µM and 2.73 µM; in assay [9], 1.65 µM and 0.508 µM; in assay [10], 1.81 µM and 0.667 µM.

For the compound `C[C@H]1CC[P+](Cc2ccccc2)(c2ccccc2)C1` (some centres not stated), the TGI in assay [1], in assay [2], in [3], in [4], in assay [5] and in [6] was greater than 100 µM throughout. Besides, the TGI in assay [7], in assay [8], in assay [9] and in assay [10] was greater than 100 µM each time.

Consider `COc1ccccc1NC(=O)C1=C(C)NC(C)=C(C(=O)Nc2ccccc2OC)C1c1ccccc1[N+](=O)[O-]`, for which the TGI in assay [1] was 26.8 µM; in [2], 34.9 µM; in [3], 25 µM; in [4], greater than 100 µM; in [5] it was 30 µM; in [6], 46.3 µM. Besides, the TGI in [7] turned out to be 40.5 µM; in [8] it was 26 µM; in assay [10] it was 88.2 µM.

Take `Cc1ccc(NC(=O)CCCC(=O)CC(=O)c2ccc(Br)cc2)cc1`: the TGI in assay [1], in assay [2], in [3], in [4], in assay [5] and in assay [6] was greater than 100 µM each time. Besides, the TGI in [7], in assay [8], in assay [9] and in assay [10] was greater than 100 µM throughout.

Regarding `O=C(c1ccc(O)cc1O)C1C(c2ccc(O)cc2)OC(c2ccc(O)cc2)C1C(=O)c1ccc(O)cc1O` (configuration not stated), the TGI was 34.3 µM in [1]; 29.5 µM in assay [2]; 34.7 µM in assay [3]; 67.9 µM in [4]; 34.5 µM in [5]; greater than 100 µM in assay [6]. Besides, the results for the TGI in assay [7], in [8] and in assay [10] were 56.8 µM, 40.3 µM and 22.9 µM, respectively.

Take `Cc1ccc(NC(=O)CCc2nc(=S)[nH][nH]2)cc1`: the TGI in assay [1], in assay [2], in assay [3], in assay [4], in assay [5] and in assay [6] was greater than 100 µM each time. The TGI in assay [7], in assay [8], in assay [9] and in assay [10] was greater than 100 µM each time.

For `Nc1nncc2c1c(Br)cn2C1OC(CO)C(O)C1O` (configuration not stated), the TGI in assay [1], in assay [2], in assay [3], in [4], in assay [5] and in [6] was greater than 100 µM each time. The TGI in assay [8] was greater than 60.9 µM; in assay [9], greater than 100 µM; in assay [10] it was greater than 100 µM.

For the compound `COc1cc(C2c3cc4c(cc3[C@@H](NCCN(C)C)C3COC(=O)[C@H]23)OCO4)cc(OC)c1O` (some centres not stated), the TGI in assay [1] was 1.76 µM and 2.2 µM; in assay [2], 0.803 µM and 1.36 µM; in assay [3], 6.9 µM and 13.2 µM; in [4], 1.05 µM and 1.66 µM; in [5] it was 1.61 µM and 2.31 µM; in assay [6], 5.19 µM and 13.3 µM. Besides, the TGI in assay [7] was 1.72 µM and 2.72 µM; in assay [8], 1.45 µM and 3.19 µM; in assay [10], 0.191 µM and 0.372 µM. In addition, the GI50 is 0.0137 µM and 0.0329 µM in assay [2]; 0.0652 µM and 0.15 µM in [4]; 0.265 µM and 1.08 µM in [7]; 0.397 µM and 1.22 µM in assay [8]; 0.0191 µM and 0.0491 µM in assay [10].

In the case of `O=C1c2ccccc2C(=O)c2cc3c(cc21)CS(=O)C3`, the TGI in [1], in assay [2], in assay [3], in assay [4], in assay [5] and in [6] was greater than 100 µM in each case. In addition, the TGI in [7], in [8] and in assay [10] was greater than 100 µM throughout.

Regarding `CC(C)(C)c1cc(CCC(=O)Nc2ccc(Cl)cc2)[nH]c(=S)n1`, the TGI in assay [1], in [2], in assay [3], in assay [4], in [5] and in [6] was greater than 100 µM each time. The TGI in assay [7], in assay [8] and in assay [10] was greater than 100 µM each time.

With `CCCNC(=O)Nc1c([N+](=O)[O-])cc(C(F)(F)F)cc1[N+](=O)[O-]`, the TGI in assay [1] was 97.5 µM; in assay [2] it was greater than 100 µM; in [3] it was greater than 100 µM; in assay [4] it was greater than 100 µM; in assay [5] it was greater than 100 µM; in [6], 73.7 µM. Moreover, the TGI in assay [7], in assay [8], in assay [9] and in assay [10] was greater than 100 µM throughout.

For the compound `O=C(O/N=C1\CCCC\C1=C/c1ccccc1)c1ccc([N+](=O)[O-])cc1`, the TGI in assay [1], in [2], in assay [3], in [4], in assay [5] and in assay [6] was greater than 100 µM each time. Moreover, the TGI in assay [7], in [8] and in assay [10] was greater than 100 µM throughout.

On to `COC1C2C[C@@H](O)CCC2C(C(=O)OCCl)C[C@H]1O` (some centres not stated), for which the TGI in [1], in [2], in assay [3], in assay [5], in assay [6] and in assay [7] was greater than 100 µM in each case. Moreover, the TGI in assay [8], in [9] and in assay [10] was greater than 100 µM in each case.

As to `COC1=C(N)C(=O)c2nc(-c3nc(C(=O)O)c(C)c(-c4ccc(OC)c(OC)c4O)c3N)ccc2C1=O`, the GI50 in assay [1] was 0.000527 µM and 0.00336 µM and < 0.01 µM; in assay [9], 0.00128 µM. Also, the TGI is 0.0214 µM and < 0.0111 µM in assay [1]; 0.0194 µM in [2]; 0.0206 µM in assay [3]; 0.00323 µM and 0.0236 µM and 0.0136 µM in [4]; 0.0183 µM and 0.0416 µM and 0.0515 µM in [6]; 0.00226 µM and 0.022 µM and 0.0194 µM in assay [7]. Besides, the TGI in assay [10] is 0.0407 µM and < 0.01 µM.

`O=S1(=O)N2CN3CN(C2)CN1C3`: the TGI is 412 µM in assay [1]; > 31.6 µM and 142 µM in [2]; 34.1 µM in assay [3]; 63.3 µM in [4]; 355 µM in assay [5]; 80.8 µM in [6]. The TGI was 110 µM in [7], 473 µM in assay [8], 522 µM in assay [9] and 624 µM in [10]. In addition, the GI50 in [2] is 32.8 µM; in [7] it was 30.8 µM.

Turning to `CC1CC2C3CCC4=CC(=O)C=CC4(C)C3(F)C(O)CC2(C)C1(O)C(=O)COP(=O)(O)O` (configuration not stated), the GI50 in assay [1], in [4], in assay [5], in assay [6], in assay [7] and in assay [8] was greater than 500 µM in each case. Further, the GI50 in assay [9] and in assay [10] was greater than 500 µM each time. The TGI in [1] was greater than 500 µM; in assay [2], greater than 100 µM; in [3] it was greater than 100 µM; in assay [4], greater than 500 µM; in assay [5], greater than 500 µM; in [6] it was greater than 500 µM. Also, the TGI in assay [7], in assay [8], in [9] and in assay [10] was greater than 500 µM each time.

In the case of `Nc1ccc2n[se]nc2c1`, the TGI in [2], in [3], in assay [4], in [5], in assay [6] and in [7] was greater than 100 µM each time. Further, the TGI in [8], in assay [9] and in assay [10] was greater than 100 µM throughout.

`COC(=O)CCSC(=O)Nc1ccc(N=Nc2ccccc2)cc1`: the TGI in assay [2], in assay [3], in [4], in assay [5], in assay [6] and in [7] was greater than 100 µM in each case. Further, the TGI in assay [9] was 62.1 µM; in [10] it was greater than 100 µM.

Turning to `NC(=O)c1ccc2c(c1)-c1nc-2nc2[n-]c(nc3nc(nc4[n-]c(n1)c1ccc(C(N)=O)cc41)-c1ccc(C(N)=O)cc1-3)c1ccc(C(N)=O)cc21.[Co+2]`, the GI50 in assay [1] was greater than 50 µM; in [2] it was greater than 50 µM; in assay [3], 35.9 µM; in assay [4] it was greater than 50 µM; in assay [5], 26 µM; in [6], greater than 50 µM. Further, the GI50 in [7], in assay [8], in [9] and in assay [10] was greater than 50 µM each time. The TGI in [1], in assay [2], in assay [3], in assay [4], in assay [5] and in assay [6] was greater than 50 µM throughout. Further, the TGI in assay [7], in [8], in [9] and in assay [10] was greater than 50 µM throughout.

Consider `COC(=O)C(=O)Cc1nc2ccccc2s1`, for which the TGI in assay [1], in assay [2], in assay [3], in [4], in assay [5] and in [6] was greater than 100 µM each time. The TGI in assay [7], in assay [8], in [9] and in assay [10] was greater than 100 µM each time.

Consider `CCOC(=O)C(C)(NC(=O)c1ccc(NCc2ccc3nc(NC(=O)c4ccccc4)nc(NC(=O)c4ccccc4)c3c2)cc1)C(=O)OCC`, for which the TGI stood at 32.1 µM in assay [1]; 27.5 µM in assay [2]; 19.9 µM in assay [4]; 44.3 µM in assay [5]; 4.18 µM in assay [6]; 17.8 µM in [7]. For the same compound, the TGI in assay [8] was found to be 34.7 µM; in assay [9], 22.7 µM; in assay [10], 31.2 µM.

With `COc1cc[c]([Sn]([c]2ccc(OC)cc2)([c]2ccc(OC)cc2)[c]2ccc(OC)cc2)cc1`, the GI50 is 25.2 µM in [2]; 15.8 µM in assay [3]; 39.4 µM in [4]; 16.7 µM in [5]; 16.8 µM in assay [6]; 27.1 µM in assay [7]. The GI50 in assay [8] was 28.2 µM; in assay [9], 14.2 µM; in assay [10] it was 81.8 µM. In addition, the TGI is 96.5 µM in [2]; 36.4 µM in assay [3]; greater than 100 µM in assay [4]; 36 µM in assay [5]; 62.8 µM in [6]; greater than 100 µM in assay [7]. For the same compound, the TGI was greater than 100 µM in assay [8], 76.3 µM in assay [9] and greater than 100 µM in assay [10].

Regarding `O=[N+]([O-])c1ccc(C2=Nc3ccccc3S(=O)C(c3ccccc3)C2)cc1` (configuration not stated), the TGI in assay [1] was 35.3 µM; in [2], 52.5 µM; in assay [3], 26.7 µM; in assay [4], greater than 100 µM; in assay [5], 42 µM; in assay [6], 42 µM. Besides, the TGI in [7] was greater than 100 µM; in assay [8], greater than 100 µM; in assay [10], 84.7 µM.
